Experimental data taken from US20260053932A1, “COMPOUNDS AND METHODS FOR THE TARGETED DEGRADATION OF ANDROGEN RECEPTOR AND ASSOCIATED METHODS OF USE” (Arvinas Operations, Inc., priority 2020, published 2026).

System: androgen receptor (AR) in LNCaP and/or VCaP cells
Assay: Androgen Receptor ELISA assay (AR degradation)
Type: cell-based
Conditions: degradation of AR ELISA in LNCaP and/or VCaP cells; Table 2C; read-out: DC50 Code*
Summary of the method: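 VCaP cells grown ≥3 days, then treated 5 h with compound in media containing 1 nM R1881 (10× stock). Cells lysed and AR quantified by sandwich ELISA (mouse AR detection Ab, HRP anti-mouse, TMB). DC50 and Dmax derived from AR degradation.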

SMILES	DC50 [nM]
COc1cc(O[C@H]2C[C@H](N(C)CCOC3CCN(c4ccc(C(=O)N[C@H]5C(C)(C)[C@H](Oc6cc(C)c(C#N)c(C)c6)C5(C)C)cc4)CC3)C2)cc2c1C(=O)N(C1CCC(=O)NC1=O)C2=O (stereo partly drawn) [compound 164, N-((1r,3r)-3-(4-cyano-3,5-dimethylphenoxy)-2,2,4,4-tetramethylcyclobutyl)-4-(4-(2-(((1r,3r)-3-((2-(2,6-dioxopiperidin-3-yl)-7-methoxy-1,3-dioxoisoindolin-5-yl)oxy)cyclobutyl) (methyl)amino)ethoxy)piperidin-1-yl)benzamide]	< 1
Cc1cc(O[C@H]2C(C)(C)[C@H](NC(=O)c3ccc(N4CCC(CN(C)[C@@H]5CC[C@H](Oc6ccc7c(c6)C(=O)N(C6CCC(=O)NC6=O)C7=O)C5)CC4)cc3)C2(C)C)cc(C)c1C#N (stereo partly drawn) [compound 166, N-((1r,3R)-3-(4-cyano-3,5-dimethylphenoxy)-2,2,4,4-tetramethylcyclobutyl)-4-(4-((((1R,3S)-3-((2-(2,6-dioxopiperidin-3-yl)-1,3-dioxoisoindolin-5-yl)oxy)cyclopentyl) (methyl)amino)methyl)piperidin-1-yl)benzamide]	< 1
Cc1cc(O[C@H]2C(C)(C)[C@H](NC(=O)c3ccc(N4CCO[C@H](CN5CCN(c6ccc7c(c6)C(=O)N(C6CCC(=O)NC6=O)C7=O)CC5)C4)cc3)C2(C)C)cc(C)c1C#N (stereo partly drawn) [compound 167, N-((1r,3R)-3-(4-cyano-3,5-dimethylphenoxy)-2,2,4,4-tetramethylcyclobutyl)-4-((2R)-2-((4-(2-(2,6-dioxopiperidin-3-yl)-1,3-dioxoisoindolin-5-yl)piperazin-1-yl)methyl)morpholino) benzamide]	< 1
CCN(CC1CCN(c2ccc(C(=O)N[C@H]3C(C)(C)[C@H](Oc4cc(C)c(C#N)c(C)c4)C3(C)C)cc2)CC1)[C@H]1C[C@H](Oc2ccc3c(c2)C(=O)N(C2CCC(=O)NC2=O)C3=O)C1 (stereo partly drawn) [compound 168, N-((1r,3r)-3-(4-cyano-3,5-dimethylphenoxy)-2,2,4,4-tetramethylcyclobutyl)-4-(4-((((1r,3r)-3-((2-(2,6-dioxopiperidin-3-yl)-1,3-dioxoisoindolin-5-yl)oxy)cyclobutyl) (ethyl)amino)methyl)piperidin-1-yl) benzamide]	< 1
Cc1cc(O[C@H]2C(C)(C)[C@H](NC(=O)c3ccc(N4CCO[C@@H](CN5CCN(c6ccc7c(c6)C(=O)N(C6CCC(=O)NC6=O)C7=O)CC5)C4)cc3)C2(C)C)cc(C)c1C#N (stereo partly drawn) [compound 171, N-((1r,3S)-3-(4-cyano-3,5-dimethylphenoxy)-2,2,4,4-tetramethylcyclobutyl)-4-((2S)-2-((4-(2-(2,6-dioxopiperidin-3-yl)-1,3-dioxoisoindolin-5-yl)piperazin-1-yl)methyl)morpholino) benzamide]	< 1
Cc1cc(O[C@H]2C(C)(C)[C@H](NC(=O)c3ccc(N4CCC(CN5CCC[C@H]5COc5ccc6c(c5)C(=O)N(C5CCC(=O)NC5=O)C6=O)CC4)cc3)C2(C)C)cc(C)c1C#N (stereo partly drawn) [compound 172, N-((1r,3S)-3-(4-cyano-3,5-dimethylphenoxy)-2,2,4,4-tetramethylcyclobutyl)-4-(4-(((2S)-2-(((2-(2,6-dioxopiperidin-3-yl)-1,3-dioxoisoindolin-5-yl)oxy)methyl)pyrrolidin-1-yl)methyl)piperidin-1-yl)benzamide]	< 1
Cc1cc(O[C@H]2C(C)(C)[C@H](NC(=O)c3ccc(N4CCC(CN5CCOC[C@@H]5CCOc5ccc6c(c5)C(=O)N(C5CCC(=O)NC5=O)C6=O)CC4)cc3)C2(C)C)cc(C)c1C#N (stereo partly drawn) [compound 174, N-((1r,3S)-3-(4-cyano-3,5-dimethylphenoxy)-2,2,4,4-tetramethylcyclobutyl)-4-(4-(((3S)-3-(2-((2-(2,6-dioxopiperidin-3-yl)-1,3-dioxoisoindolin-5-yl)oxy)ethyl)morpholino)methyl)piperidin-1-yl)benzamide]	< 1
Cc1cc(O[C@H]2C(C)(C)[C@H](NC(=O)c3cnc(N4CC5(CC(CN(C(C)C)[C@H]6C[C@H](Oc7ccc8c(c7)C(=O)N(C7CCC(=O)NC7=O)C8=O)C6)C5)C4)cn3)C2(C)C)cc(C)c1C#N (stereo partly drawn) [compound 175, N-((1r,3r)-3-(4-cyano-3,5-dimethylphenoxy)-2,2,4,4-tetramethylcyclobutyl)-5-(6-((((1r,3r)-3-((2-(2,6-dioxopiperidin-3-yl)-1,3-dioxoisoindolin-5-yl)oxy)cyclobutyl) (isopropyl)amino)methyl)-2-azaspiro[3.3]heptan-2-yl)pyrazine-2-carboxamide]	< 1
COc1cc(O[C@H]2C[C@H](N(CC3CCN(c4ncc(C(=O)N[C@H]5C(C)(C)[C@H](Oc6cc(C)c(C#N)c(C)c6)C5(C)C)cn4)CC3)CC(F)(F)F)C2)cc2c1C(=O)N(C1CCC(=O)NC1=O)C2=O (stereo partly drawn) [compound 179, N-((1r,3r)-3-(4-cyano-3,5-dimethylphenoxy)-2,2,4,4-tetramethylcyclobutyl)-2-(4-((((1r,3r)-3-((2-(2,6-dioxopiperidin-3-yl)-7-methoxy-1,3-dioxoisoindolin-5-yl)oxy)cyclobutyl)(2,2,2-trifluoroethyl)amino)methyl)piperidin-1-yl)pyrimidine-5-carboxamide]	< 1
COc1cc(O[C@H]2C[C@H](N(CCN3CCOCC3)CC3CCN(c4ccc(C(=O)N[C@H]5C(C)(C)[C@H](Oc6cc(C)c(C#N)c(C)c6)C5(C)C)cc4)CC3)C2)cc2c1C(=O)N(C1CCC(=O)NC1=O)C2=O (stereo partly drawn) [compound 180, N-((1r,3r)-3-(4-cyano-3,5-dimethylphenoxy)-2,2,4,4-tetramethylcyclobutyl)-4-(4-((((1r,3r)-3-((2-(2,6-dioxopiperidin-3-yl)-7-methoxy-1,3-dioxoisoindolin-5-yl)oxy)cyclobutyl)(2-morpholinoethyl)amino)methyl)piperidin-1-yl)benzamide]	< 1
Cc1cc(O[C@H]2C(C)(C)[C@H](NC(=O)c3ccc(CN4CCOC[C@H]4CN4CCN(c5ccc6c(c5)C(=O)N(C5CCC(=O)NC5=O)C6=O)CC4)cc3)C2(C)C)cc(C)c1C#N (stereo partly drawn) [compound 183, N-((1r,3R)-3-(4-cyano-3,5-dimethylphenoxy)-2,2,4,4-tetramethylcyclobutyl)-4-(((3R)-3-((4-(2-(2,6-dioxopiperidin-3-yl)-1,3-dioxoisoindolin-5-yl)piperazin-1-yl)methyl)morpholino)methyl)benzamide]	< 1
COCCN(CC1CCN(c2ccc(C(=O)N[C@H]3C(C)(C)[C@H](Oc4ccc(C#N)c(Cl)c4)C3(C)C)cc2)CC1)[C@H]1C[C@H](Oc2ccc3c(c2)C(=O)N(C2CCC(=O)NC2=O)C3=O)C1 (stereo partly drawn) [compound 184, N-((1r,3r)-3-(3-chloro-4-cyanophenoxy)-2,2,4,4-tetramethylcyclobutyl)-4-(4-((((1r,3r)-3-((2-(2,6-dioxopiperidin-3-yl)-1,3-dioxoisoindolin-5-yl)oxy)cyclobutyl)(2-methoxyethyl)amino)methyl)piperidin-1-yl)benzamide]	< 1
Cc1cc(O[C@H]2C(C)(C)[C@H](NC(=O)c3ccc(N4CC(CN(C(C)C)[C@H]5C[C@H](Oc6ccc7c(c6)C(=O)N(C6CCC(=O)NC6=O)C7=O)C5)C4)cc3)C2(C)C)cc(C)c1C#N (stereo partly drawn) [compound 187, N-((1r,3r)-3-(4-cyano-3,5-dimethylphenoxy)-2,2,4,4-tetramethylcyclobutyl)-4-(3-((((1r,3r)-3-((2-(2,6-dioxopiperidin-3-yl)-1,3-dioxoisoindolin-5-yl)oxy)cyclobutyl) (isopropyl)amino)methyl)azetidin-1-yl)benzamide]	< 1
Cc1cc(O[C@H]2C(C)(C)[C@H](NC(=O)c3ccc(N4CCC(CN5CCCC[C@@H]5COc5ccc6c(c5)C(=O)N(C5CCC(=O)NC5=O)C6=O)CC4)cc3)C2(C)C)cc(C)c1C#N (stereo partly drawn) [compound 192, N-((1r,3R)-3-(4-cyano-3,5-dimethylphenoxy)-2,2,4,4-tetramethylcyclobutyl)-4-(4-(((2R)-2-(((2-(2,6-dioxopiperidin-3-yl)-1,3-dioxoisoindolin-5-yl)oxy)methyl)piperidin-1-yl)methyl)piperidin-1-yl)benzamide]	< 1
Cc1cc(O[C@H]2C(C)(C)[C@H](NC(=O)c3ccc(N4CCC(CN5CCC[C@@H]5COc5ccc6c(c5)C(=O)N(C5CCC(=O)NC5=O)C6=O)CC4)cc3)C2(C)C)cc(C)c1C#N (stereo partly drawn) [compound 193, N-((1r,3R)-3-(4-cyano-3,5-dimethylphenoxy)-2,2,4,4-tetramethylcyclobutyl)-4-(4-(((2R)-2-(((2-(2,6-dioxopiperidin-3-yl)-1,3-dioxoisoindolin-5-yl)oxy)methyl)pyrrolidin-1-yl)methyl)piperidin-1-yl)benzamide]	< 1
CCN(CC1CCN(c2cnc(C(=O)N[C@H]3C(C)(C)[C@H](Oc4ccc(C#N)c(OC)c4)C3(C)C)cn2)CC1)[C@H]1C[C@H](Oc2ccc3c(c2)C(=O)N(C2CCC(=O)NC2=O)C3=O)C1 (stereo partly drawn) [compound 194, N-((1r,3r)-3-(4-cyano-3-methoxyphenoxy)-2,2,4,4-tetramethylcyclobutyl)-5-(4-((((1r,3r)-3-((2-(2,6-dioxopiperidin-3-yl)-1,3-dioxoisoindolin-5-yl)oxy)cyclobutyl)(ethyl)amino)methyl)piperidin-1-yl)pyrazine-2-carboxamide]	< 1
Cc1cc(O[C@H]2C(C)(C)[C@H](NC(=O)c3ccc(CN4CCOC[C@@H]4CN4CCN(c5ccc6c(c5)C(=O)N(C5CCC(=O)NC5=O)C6=O)CC4)cc3)C2(C)C)cc(C)c1C#N (stereo partly drawn) [compound 196, N-((1r,3S)-3-(4-cyano-3,5-dimethylphenoxy)-2,2,4,4-tetramethylcyclobutyl)-4-(((3S)-3-((4-(2-(2,6-dioxopiperidin-3-yl)-1,3-dioxoisoindolin-5-yl)piperazin-1-yl)methyl)morpholino)methyl)benzamide]	< 1
Cc1cc(O[C@H]2C(C)(C)[C@H](NC(=O)c3ccc(N4CCC(CN5CCOC[C@H]5CCOc5ccc6c(c5)C(=O)N(C5CCC(=O)NC5=O)C6=O)CC4)cc3)C2(C)C)cc(C)c1C#N (stereo partly drawn) [compound 201, N-((1r,3R)-3-(4-cyano-3,5-dimethylphenoxy)-2,2,4,4-tetramethylcyclobutyl)-4-(4-(((3R)-3-(2-((2-(2,6-dioxopiperidin-3-yl)-1,3-dioxoisoindolin-5-yl)oxy)ethyl)morpholino)methyl)piperidin-1-yl)benzamide]	< 1
